Measurements reported in PMC6789573, “Phosphonic Acid Analogues of Phenylglycine as Inhibitors of Aminopeptidases: Comparison of Porcine Aminopeptidase N, Bovine Leucine Aminopeptidase, Tomato Acidic Leucine Aminopeptidase and Aminopeptidase from Barley Seeds” (Pharmaceuticals, 2019).

Experiments:
[1] = molecular target: T1, porcine aminopeptidase N (pAPN) (Sus scrofa, UniProt P15145); assay: Inhibition of porcine kidney aminopeptidase N (L-Leu-pNa hydrolysis, absorbance at 405 nm); type: biochemical; conditions: for Ki / pAPN Ki + SD: racemic compounds, apparent Ki ± SD, 50 mM potassium phosphate pH 7.2, 37 °C, substrate L-Leu-pNa, in = inactive at a concentration of 1 mM; for inhibitory action: pAPN
T1 construct: Microsomal leucine aminopeptidase (APN, EC 3.4.11.2) from porcine kidney was purchased from Sigma Aldrich; purchased Sigma Aldrich; host or cells: porcine kidney (tissue-derived)
T1 sequence (P15145 1-963): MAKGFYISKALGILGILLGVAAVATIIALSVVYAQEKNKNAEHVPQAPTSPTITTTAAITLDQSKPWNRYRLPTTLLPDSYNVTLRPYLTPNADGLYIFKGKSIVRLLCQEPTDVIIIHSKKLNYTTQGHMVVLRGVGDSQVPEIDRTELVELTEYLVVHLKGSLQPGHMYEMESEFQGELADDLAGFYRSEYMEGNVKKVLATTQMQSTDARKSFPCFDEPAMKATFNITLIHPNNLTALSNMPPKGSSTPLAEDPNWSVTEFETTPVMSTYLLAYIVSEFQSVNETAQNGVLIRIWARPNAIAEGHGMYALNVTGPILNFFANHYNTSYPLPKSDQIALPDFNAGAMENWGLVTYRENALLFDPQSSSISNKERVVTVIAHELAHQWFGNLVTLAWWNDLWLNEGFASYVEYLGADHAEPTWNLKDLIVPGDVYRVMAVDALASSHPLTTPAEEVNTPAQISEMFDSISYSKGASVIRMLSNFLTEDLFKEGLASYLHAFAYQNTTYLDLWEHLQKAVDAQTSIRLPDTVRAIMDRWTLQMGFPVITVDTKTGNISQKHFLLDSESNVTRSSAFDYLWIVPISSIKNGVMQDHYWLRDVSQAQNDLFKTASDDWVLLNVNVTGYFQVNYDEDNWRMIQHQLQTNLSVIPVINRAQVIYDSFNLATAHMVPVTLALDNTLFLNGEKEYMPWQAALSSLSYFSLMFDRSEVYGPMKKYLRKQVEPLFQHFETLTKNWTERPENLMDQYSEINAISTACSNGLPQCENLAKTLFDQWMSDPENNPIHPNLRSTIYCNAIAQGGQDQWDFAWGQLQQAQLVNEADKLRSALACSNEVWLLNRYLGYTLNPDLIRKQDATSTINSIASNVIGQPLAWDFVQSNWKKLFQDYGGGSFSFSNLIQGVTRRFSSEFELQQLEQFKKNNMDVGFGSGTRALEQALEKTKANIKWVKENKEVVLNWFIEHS
Experimental: Microsomal leucine aminopeptidase (APN, EC 3.4.11.2) from porcine kidney was purchased from Sigma Aldrich. It was applied directly in kinetic measurements after dissolving in 50 mM potassium phosphate (pH 7.2). Such a solution should be stored in 4 °C for no longer than 2 days.
(§1) The activity of pAPN (KM = 0.52 mM) was determined as described in the literature. The activity of aminopeptidase from barley seeds was determined at 37 °C in 50 mM Tris-HCl, pH 8.0, containing 50 mM NaCl and 10 mM β-mercaptoethanol using substrate L-leucine-p-nitroanilidine (L-Leu-pNa) dissolved in DMSO. The kinetics parameters of the purified enzyme were measured for L-Leu-pNa at ten final concentrations (ranging from 0.1 to 1.0 mM) and being repeated two times. The KM value of barley seeds aminopeptidase was determined by using the Lineweaver–Burk weighted regression method (see Table S7 and Plot 1 in the Supplementary Information).
The assay mixture of the pAPN, totaling 1.01 mL, contained 50 mM potassium phosphate buffer (pH 7.2), 0.025 mL of the substrate L-Leu-pNa dissolved in DMSO (used in 0.4–0.1 mM range of the final concentration), 0.05 mL of the potential inhibitor in reaction buffer (in a concentration dependent on the potency of the compound), and 0.01 mL of the enzyme solution (4µg/mL final concentration).
(§2) The progress of the enzymatic reaction for both enzymes was measured at 37 °C for 10 min and was monitored spectrophotometrically (UV-VIS Spectrophotometer, JASCO V-730) by following the change in absorbance at 405 nm (formation of p-nitroaniline). The extinction coefficient for pNa was 9620 M^−1cm^−1.
(§3) Inhibition constants were determined considering four substrate concentrations and five concentrations of each inhibitor, with each measurement being repeated at least twice.
(§4) The rate of enzymatic reaction was studied following the reaction progress (changes in absorbance of L-Leu-pNa over time). Kinetics constants, namely Ki and IC50, and the type of the inhibition were determined using Lineweaver–Burk, Dixon, and Hanes–Wolf procedures. For each parameter, relative errors were calculated.

[2] = molecular target: aminopeptidase from barley seeds; assay: Inhibition of aminopeptidase from barley seeds (L-Leu-pNa hydrolysis, absorbance at 405 nm); type: biochemical, barley (Hordeum vulgare L.); conditions: for Ki / Barley Seed AP Ki + SD: racemic compounds, apparent Ki ± SD, 50 mM Tris-HCl pH 8.0, 37 °C, substrate L-Leu-pNa, in = inactive at a concentration of 1 mM; for Ki: read-out: Barley Seed AP Ki + SD; for inhibitory action: barley enzyme
Experimental: Aminopeptidase from barley seeds (Hordeum vulgare L.) was isolated and purified based on the procedure described previously. The following steps were used: (i) ammonium sulfate precipitation, (ii) gel chromatography (Sephadex G-25, Sephacryl HR 300), followed by (iii) ion chromatography (DEAE—Sepharose). The molecular mass of the extracted enzyme was ~58 kDa. Because of the low stability of the concentrated enzyme solution, it was prepared directly before each kinetic study.
as §1
The assay mixture of the aminopeptidase from barley seeds, totaling 1.095 mL, contained 50 mM Tris-HCl buffer (pH 8.0) with 50 mM NaCl and 10 mM β-mercaptoethanol, 0.025 mL of the substrate L-Leu-pNa dissolved in DMSO (used in 0.4–0.1 mM range of the final concentration), 0.05 mL of varying concentrations of the potential inhibitor (dependent on the potency of the compound), and 0.02 mL enzyme (0.030 mg of protein).
as §2, §3, §4
The progress of the enzymatic reactions was monitored spectrophotometrically (UV-VIS Spectrophotometer JASCO V-730) by following the change in absorbance at 405 nm (formation of p-nitroanilide). The extinction coefficient for L- […]
The kinetic parameters (KM and Vmax) for aminopeptidase from barley seeds were determined by using the Lineweaver–Burk (L-B) weighted regression method. The measured KM value was 0.21 mM ± 0.14 and was used to determine the inhibitory constants of the all evaluated inhibitors.
Table S7. The kinetic parameters characterizing activity of the isolated aminopeptidase from barley seeds. […]
Lineweaver-Burk regression
Plot S1. Graphical determination of the KM value for aminopeptidase from barley seeds by using Lineweaver-Burk: unweighted (blue line) and weighted (red line) regression method.

NC(c1ccccc1F)P(=O)(O)O (centres unmarked) [Compound 1] was tested, and the Ki [1] was 232 ± 22 µM.
In the case of NC(c1cccc(F)c1)P(=O)(O)O (centres unmarked) [Compound 2], the Ki [2] is reported as 311 ± 27 µM and the Ki [1] is reported as 122 ± 10 µM.
For NC(c1ccc(F)cc1)P(=O)(O)O (centres unmarked) [Compound 3], the Ki [2] was 1100 ± 57 µM.
For NC(c1ccc(F)cc1F)P(=O)(O)O (centres unmarked) [Compound 4], the Ki [2] was 1420 ± 83 µM.
With NC(c1ccc(F)c(F)c1)P(=O)(O)O (centres unmarked) [Compound 5] the Ki [2] was 549 ± 54 µM.
NC(c1c(F)cc(F)cc1F)P(=O)(O)O (centres unmarked) [Compound 6] was tested, and the “Barley Seed AP Ki + SD” value [2] was “in ^2” and the “pAPN Ki + SD” value [1] was “in ^2”.
Work on NC(c1ccc(F)c(Cl)c1)P(=O)(O)O (centres unmarked) [Compound 7] yielded a Ki [2] of 62.1 ± 2.3 µM.
With NC(c1ccc(Cl)c(F)c1)P(=O)(O)O (centres unmarked) [Compound 8] the Ki [2] was 103 ± 10 µM.
For NC(c1ccc(Cl)cc1F)P(=O)(O)O (centres unmarked) [Compound 9], the Ki [2] was 818 ± 43 µM.
For NC(c1ccc(C(F)(F)F)cc1)P(=O)(O)O (centres unmarked) [Compound 10], the Ki [2] was 686 ± 70 µM and the Ki [1] was 56.3 ± 2.2 µM.
Work on NC(c1cc(F)cc(C(F)(F)F)c1)P(=O)(O)O (centres unmarked) [Compound 11] yielded a Ki [2] of 1030 ± 73 µM and a Ki [1] of 164 ± 7.7 µM.
NC(c1ccc(C(F)(F)F)cc1F)P(=O)(O)O (centres unmarked) [Compound 12] was tested, and the “inhibitory action” value [2] was “practically no inhibitory action”, the “Barley Seed AP Ki + SD” value [2] was “in ^2” and the “inhibitory action” value [1] was “practically no inhibitory action”. For the same compound, the “pAPN Ki + SD” value [1] was “in ^2”.
NC(c1c(F)c(F)c(F)c(F)c1F)P(=O)(O)O (centres unmarked) [Compound 13] was tested, and the “inhibitory action” value [2] was “practically no inhibitory action”, the “Barley Seed AP Ki + SD” value [2] was “in ^2” and the “inhibitory action” value [1] was “practically no inhibitory action”. For the same compound, the “pAPN Ki + SD” value [1] was “in ^2”.
With NC(c1ccc(O)cc1F)P(=O)(O)O (centres unmarked) [Compound 14] the “Barley Seed AP Ki + SD” value [2] was “in ^2”.
CC(C)C[C@H](N)C(=O)Nc1ccc([N+](=O)[O-])cc1 [L-Leu-pNa, L-leucine-p-nitroanilidine, reference compound] was tested, and the Km ([2]; substrate of barley seed aminopeptidase, Lineweaver-Burk weighted regression, 37 °C, pH 8.0) was 210 µM and the Km ([1]; substrate of pAPN) was 520 µM.
